Values quoted from earlier work in publication PMC7362765 (Accounts of chemical research, 2019).

System: DF3
Experiment: oxidation to quinone […], saturation kinetics
Type: biochemical, synthetic construct
Details: diiron form, ambient O2; recounted from the authors' own ref 19

Km: 2100 µM
SMILES: CC(C)(C)c1cc(O)c(O)c(C(C)(C)C)c1 [compound 6, 3,5-di-tert-butylcatechol]
